Results as given in patent US20240208992A1, “MACROCYCLES AS CFTR MODULATORS” (Idorsia Pharmaceuticals Ltd, priority 2021, published 2024).

Target: human F508del-CFTR (Homo sapiens, UniProt P13569, DEL508-508)
Experiment: F508del-CFTR cell surface expression (corrector activity), DiscoveRx ß-galactosidase complementation chemiluminescence assay in recombinant U2OS cell line;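 further: U2OS cells co-expressing ProLink-tagged F508del-CFTR and a membrane-anchored enzyme acceptor, where more surface CFTR restores β-galactosidase activity measured by chemiluminescence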
Details: U2OS cell line, 16h compound incubation; for EC50: EC50, F508del-CFTR cell surface expression, geomean values; for Emax: U2OS, in relation to the Emax of the corrector lumacaftor (=100%), arithmetic mean values

Sequence of human F508del-CFTR (P13569 with tags, fused parts or gaps DEL508-508): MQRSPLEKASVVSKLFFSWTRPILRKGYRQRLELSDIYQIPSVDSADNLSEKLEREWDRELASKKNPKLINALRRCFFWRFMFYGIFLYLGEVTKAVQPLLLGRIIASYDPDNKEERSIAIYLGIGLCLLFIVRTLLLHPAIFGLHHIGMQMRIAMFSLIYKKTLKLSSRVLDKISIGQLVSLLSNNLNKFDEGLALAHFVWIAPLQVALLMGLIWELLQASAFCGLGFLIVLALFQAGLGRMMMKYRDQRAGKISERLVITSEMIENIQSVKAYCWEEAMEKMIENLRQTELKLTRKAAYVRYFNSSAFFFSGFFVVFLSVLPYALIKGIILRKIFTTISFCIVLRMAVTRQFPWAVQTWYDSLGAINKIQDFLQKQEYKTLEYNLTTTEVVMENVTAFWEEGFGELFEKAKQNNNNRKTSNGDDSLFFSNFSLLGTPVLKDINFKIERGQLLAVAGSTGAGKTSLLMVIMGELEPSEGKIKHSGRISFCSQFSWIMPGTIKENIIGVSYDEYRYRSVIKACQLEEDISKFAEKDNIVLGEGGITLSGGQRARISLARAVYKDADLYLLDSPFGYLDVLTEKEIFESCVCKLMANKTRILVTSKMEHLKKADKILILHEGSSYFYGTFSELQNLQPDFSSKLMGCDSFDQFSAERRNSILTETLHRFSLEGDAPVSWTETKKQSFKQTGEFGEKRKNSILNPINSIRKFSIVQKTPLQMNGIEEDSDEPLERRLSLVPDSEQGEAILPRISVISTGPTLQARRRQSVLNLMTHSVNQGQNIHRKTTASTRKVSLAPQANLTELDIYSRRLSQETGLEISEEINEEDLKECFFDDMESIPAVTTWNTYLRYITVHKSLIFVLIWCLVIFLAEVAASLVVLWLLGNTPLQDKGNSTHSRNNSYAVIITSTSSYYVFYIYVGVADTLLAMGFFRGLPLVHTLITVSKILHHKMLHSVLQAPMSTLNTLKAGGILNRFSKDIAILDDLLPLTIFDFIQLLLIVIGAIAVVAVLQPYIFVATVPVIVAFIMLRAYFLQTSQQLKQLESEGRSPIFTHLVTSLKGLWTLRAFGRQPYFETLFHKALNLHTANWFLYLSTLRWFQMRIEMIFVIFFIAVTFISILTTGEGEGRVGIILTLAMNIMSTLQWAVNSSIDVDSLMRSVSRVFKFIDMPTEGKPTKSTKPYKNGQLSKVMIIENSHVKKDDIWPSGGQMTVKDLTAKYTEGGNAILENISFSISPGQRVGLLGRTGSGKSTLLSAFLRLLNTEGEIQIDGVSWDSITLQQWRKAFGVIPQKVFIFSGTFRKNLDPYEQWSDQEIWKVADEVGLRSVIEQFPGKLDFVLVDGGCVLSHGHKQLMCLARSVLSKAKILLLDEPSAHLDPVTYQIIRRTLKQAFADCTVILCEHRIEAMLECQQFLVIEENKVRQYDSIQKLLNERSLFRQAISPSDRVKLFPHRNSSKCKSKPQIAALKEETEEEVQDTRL

Row | SMILES | EC50 [nM] | Emax [%]
1 | CC(C)C[C@H]1C(=O)N(C)C2(CC2)C(=O)N[C@H](Cc2ccccc2)COc2cnc3ccccc3c2C(=O)N[C@H](C(=O)NCC(F)(F)c2ccccc2)CC(=O)N1C [Example 145, (3′S,7′S,13′R)-13′-benzyl-N-(2,2-difluoro-2-phenylethyl)-7′-isobutyl-6′,9′-dimethyl-1′,5′,8′,11′-tetraoxo-2′,3′,4′,5′,6′,7′,8′,9′,11′,12′,13′,14′-dodecahydro-1′H-spiro[cyclopropane-1,10′-[1]oxa[4,7,10,14]tetraazacycloheptadecino[17,16-c]quinoline]-3′-carboxamide] | 309 | 107
2 | Cc1noc(CCNC(=O)[C@@H]2CC(=O)N(C)[C@@H](CC(C)C)C(=O)N(C)C3(CC3)C(=O)N[C@H](Cc3ccccc3)COc3cnc4ccc(F)cc4c3C(=O)N2)n1 [Example 146, (3′S,7′S,13′R)-13′-benzyl-20′-fluoro-7′-isobutyl-6′,9′-dimethyl-N-(2-(3-methyl-1,2,4-oxadiazol-5-yl)ethyl)-1′,5′,8′,11′-tetraoxo-2′,3′,4′,5′,6′,7′,8′,9′,11′,12′,13′,14′-dodecahydro-1′H-spiro[cyclopropane-1,10′-[1]oxa[4,7,10,14]tetraazacycloheptadecino[17,16-c]quinoline]-3′-carboxamide] | 247 | 318
3 | Cc1cc(CCNC(=O)[C@@H]2CC(=O)N(C)[C@@H](CC(C)C)C(=O)N(C)C3(CC3)C(=O)N[C@H](Cc3ccccc3)COc3cnc4ccc(F)cc4c3C(=O)N2)on1 [Example 147, (3′S,7′S,13′R)-13′-benzyl-20′-fluoro-7′-isobutyl-6′,9′-dimethyl-N-(2-(3-methylisoxazol-5-yl)ethyl)-1′,5′,8′,11′-tetraoxo-2′,3′,4′,5′,6′,7′,8′,9′,11′,12′,13′,14′-dodecahydro-1′H-spiro[cyclopropane-1,10′-[1]oxa[4,7,10,14]tetraazacycloheptadecino[17,16-c]quinoline]-3′-carboxamide] | 270 | 339
4 | COc1cc2c(cc1OC)C(=O)N[C@H](C(=O)NCCc1ccc3c(c1)OCCC3)CC(=O)N(C)[C@@H](CC(C)C)C(=O)N(C)CC(=O)N[C@H](Cc1ccccc1)CO2 [Example 148, (3R,9S,13S)-3-benzyl-N-(2-(chroman-7-yl)ethyl)-9-isobutyl-17,18-dimethoxy-7,10-dimethyl-5,8,11,15-tetraoxo-2,3,4,5,6,7,8,9,10,11,12,13,14,15-tetradecahydrobenzo[p][1]oxa[4,7,10,14]tetraazacycloheptadecine-13-carboxamide] | 811 | 198
5 | COc1cccc2c1C(=O)N[C@H](C(=O)NCCc1ccc3c(c1)OCCO3)CC(=O)N(C)[C@@H](CC(C)C)C(=O)N(CCC1CCCCC1)CC(=O)N[C@H](Cc1ccccc1)CO2 [Example 149, (3R,9S,13S)-3-benzyl-7-(2-cyclohexylethyl)-N-(2-(2,3-dihydrobenzo[b][1,4]dioxin-6-yl)ethyl)-9-isobutyl-16-methoxy-10-methyl-5,8,11,15-tetraoxo-2,3,4,5,6,7,8,9,10,11,12,13,14,15-tetradecahydrobenzo[p][1]oxa[4,7,10,14]tetraazacycloheptadecine-13-carboxamide] | 191 | 259
6 | COc1cccc2c1C(=O)N[C@H](C(=O)NCCc1cccc(OC(F)F)c1)CC(=O)N(C)[C@@H](CC(C)C)C(=O)N(CCC1CCCCC1)CC(=O)N[C@H](Cc1ccccc1)CO2 [Example 150, (3R,9S,13S)-3-benzyl-7-(2-cyclohexylethyl)-N-(3-(difluoromethoxy)phenethyl)-9-isobutyl-16-methoxy-10-methyl-5,8,11,15-tetraoxo-2,3,4,5,6,7,8,9,10,11,12,13,14,15-tetradecahydrobenzo[p][1]oxa[4,7,10,14]tetraazacycloheptadecine-13-carboxamide] | 151 | 130
7 | COc1ccc(CCNC(=O)[C@@H]2CC(=O)N(C)[C@@H](CC(C)C)C(=O)N(C)CC(=O)N[C@H](Cc3ccccc3)COc3cc4c(cc3C(=O)N2)OCO4)cc1 [Example 153, (7R,13S,17S)-7-benzyl-13-isobutyl-N-(4-methoxyphenethyl)-11,14-dimethyl-9,12,15,19-tetraoxo-6,7,8,9,10,11,12,13,14,15,16,17,18,19-tetradecahydro-[1,3]dioxolo[4′,5′:4,5]benzo[1,2-p][1]oxa[4,7,10,14]tetraazacycloheptadecine-17-carboxamide] | 460 | 115
8 | CC(C)C[C@H]1C(=O)N(CCC2CCOCC2)CC(=O)N[C@H](Cc2ccccc2)COc2cc3c(cc2C(=O)N[C@H](C(=O)NCCc2ccc4c(c2)OCO4)CC(=O)N1C)OCO3 [Example 154, (7R,13S,17S)-N-(2-(benzo[d][1,3]dioxol-5-yl)ethyl)-7-benzyl-13-isobutyl-14-methyl-9,12,15,19-tetraoxo-11-(2-(tetrahydro-2H-pyran-4-yl)ethyl)-6,7,8,9,10,11,12,13,14,15,16,17,18,19-tetradecahydro-[1,3]dioxolo[4′,5′:4,5]benzo[1,2-p][1]oxa[4,7,10,14]tetraazacycloheptadecine-17-carboxamide] | 398 | 102
9 | COc1cc(CCNC(=O)[C@@H]2CC(=O)N(C)[C@@H](CC(C)C)C(=O)N(CCC3CCCCC3)CC(=O)N[C@H](Cc3ccccc3)COc3cccc(OC)c3C(=O)N2)ccn1 [Example 158, (3R,9S,13S)-3-benzyl-7-(2-cyclohexylethyl)-9-isobutyl-16-methoxy-N-(2-(2-methoxypyridin-4-yl)ethyl)-10-methyl-5,8,11,15-tetraoxo-2,3,4,5,6,7,8,9,10,11,12,13,14,15-tetradecahydrobenzo[p][1]oxa[4,7,10,14]tetraazacycloheptadecine-13-carboxamide] | 315 | 169
10 | COc1cc2c(cc1OC)C(=O)N[C@H](C(=O)NCCc1ccc3c(c1)OCO3)CC(=O)N(C)[C@@H](CC(C)C)C(=O)N(C[C@H]1CCCCO1)CC(=O)N[C@H](Cc1ccccc1)CO2 [Example 159, (3R,9S,13S)-N-(2-(benzo[d][1,3]dioxol-5-yl)ethyl)-3-benzyl-9-isobutyl-17,18-dimethoxy-10-methyl-5,8,11,15-tetraoxo-7-(((R)-tetrahydro-2H-pyran-2-yl)methyl)-2,3,4,5,6,7,8,9,10,11,12,13,14,15-tetradecahydrobenzo[p][1]oxa[4,7,10,14]tetraazacycloheptadecine-13-carboxamide] | 385 | 100
11 | COc1cc2c(cc1OC)C(=O)N[C@H](C(=O)NCCc1ccc3c(c1)OCO3)CC(=O)N(C)[C@@H](CC(C)C)C(=O)N(C[C@@H]1CCCCO1)CC(=O)N[C@H](Cc1ccccc1)CO2 [Example 160, (3R,9S,13S)-N-(2-(benzo[d][1,3]dioxol-5-yl)ethyl)-3-benzyl-9-isobutyl-17,18-dimethoxy-10-methyl-5,8,11,15-tetraoxo-7-(((S)-tetrahydro-2H-pyran-2-yl)methyl)-2,3,4,5,6,7,8,9,10,11,12,13,14,15-tetradecahydrobenzo[p][1]oxa[4,7,10,14]tetraazacycloheptadecine-13-carboxamide] | 224 | 116
12 | COc1cc2c(cc1OC)C(=O)N[C@H](C(=O)NCCc1ccc3c(c1)OCCCC3)CC(=O)N(C)[C@@H](CC(C)C)C(=O)N(C)CC(=O)N[C@H](Cc1ccccc1)CO2 [Example 161, (3R,9S,13S)-3-benzyl-9-isobutyl-17,18-dimethoxy-7,10-dimethyl-5,8,11,15-tetraoxo-N-(2-(2,3,4,5-tetrahydrobenzo[b]oxepin-8-yl)ethyl)-2,3,4,5,6,7,8,9,10,11,12,13,14,15-tetradecahydrobenzo[p][1]oxa[4,7,10,14]tetraazacycloheptadecine-13-carboxamide] | 250 | 137
13 | COc1ccc(C2(CNC(=O)[C@@H]3CC(=O)N(C)[C@@H](CC(C)C)C(=O)N(C)C4(CC4)C(=O)N[C@H](Cc4ccccc4)COc4cnc5ccc(F)cc5c4C(=O)N3)CC2)cc1OC [Example 166, (3′S,7′S,13′R)-13′-benzyl-N-((1-(3,4-dimethoxyphenyl)cyclopropyl)methyl)-20′-fluoro-7′-isobutyl-6′,9′-dimethyl-1′,5′,8′,11′-tetraoxo-2′,3′,4′,5′,6′,7′,8′,9′,11′,12′,13′,14′-dodecahydro-1′H-spiro[cyclopropane-1,10′-[1]oxa[4,7,10,14]tetraazacycloheptadecino[17,16-c]quinoline]-3′-carboxamide] | 624 | 111
14 | CC(C)C[C@H]1C(=O)N(C)C2(CC2)C(=O)N[C@H](Cc2ccccc2)COc2cnc3ccc(F)cc3c2C(=O)N[C@H](C(=O)NCCc2cccc(S(C)(=O)=O)c2)CC(=O)N1C [Example 167, (3′S,7′S,13′R)-13′-benzyl-20′-fluoro-7′-isobutyl-6′,9′-dimethyl-N-(3-(methylsulfonyl)phenethyl)-1′,5′,8′,11′-tetraoxo-2′,3′,4′,5′,6′,7′,8′,9′,11′,12′,13′,14′-dodecahydro-1′H-spiro[cyclopropane-1,10′-[1]oxa[4,7,10,14]tetraazacycloheptadecino[17,16-c]quinoline]-3′-carboxamide] | 822 | 238
15 | CC(C)C[C@H]1C(=O)N(C)C2(CC2)C(=O)N[C@H](Cc2ccccc2)COc2cnc3ccc(F)cc3c2C(=O)N[C@H](C(=O)NCCc2cccc(C#N)c2)CC(=O)N1C [Example 168, (3′S,7′S,13′R)-13′-benzyl-N-(3-cyanophenethyl)-20′-fluoro-7′-isobutyl-6′,9′-dimethyl-1′,5′,8′,11′-tetraoxo-2′,3′,4′,5′,6′,7′,8′,9′,11′,12′,13′,14′-dodecahydro-1′H-spiro[cyclopropane-1,10′-[1]oxa[4,7,10,14]tetraazacycloheptadecino[17,16-c]quinoline]-3′-carboxamide] | 338 | 193
